Laboratory results published in US20140249105A1, “NOVEL CERAMIDE ANALOGUES, PROCESSES FOR PREPARING SAME AND USES THEREOF” (Diverchim, priority 2011, published 2014).
* marks the point of attachment. MeOSuc = COC(=O)CCC(=O)*; CH2Cl = ClC*

What was measured:
[1] = test system: Normal human dermal fibroblasts (NHDF); assay: Proliferation and/or migration of fibroblasts, artificial wound coverage; assay type: cell-based; conditions: percentage coverage at 24 h
Description: An increase in migration and proliferation of the cells allows an improvement in healing. • Biological model: Normal human dermal fibroblasts (NHDF) • Culture conditions: 37° C., 5% CO2 • Culture medium: DMEM • Conditions: • Control (NHDF in DMEM test medium 0% FCS) (n=6) • Reference: FCS (Fetal Calf Serum) at 10% (n=2) • compounds tested (n=2) • Incubation: 72 hours • Assay: Normal human fibroblasts were seeded on 96-well plates suitable for the migration studies. In these plates, the substrates were pretreated with a solution of collagen and a mask was placed at the centre of each well, preventing adhesion of the cells in this zone and thus forming an artificial wound. After labelling the cells with calcein, the masks were removed and then the cells were treated with the compounds or the reference. The migration of the cells was monitored microscopically for 72 hours, taking photographs at 0 h, 24 h, 48 h and 72 h. The results are expressed in percentage coverage and compared with the untreated control.

[2] = test system: B16 melanocytes; assay: Screening of anti-melanogenesis activity: melanin assay in B16 melanocytes stimulated with NDP-MSH; assay type: cell-based; conditions: 72 h
Description: This was carried out for compounds in solution in DMSO. The synthesis of melanin was measured in a model of B16 melanocytes stimulated with a stable derivative of α-MSH (natural hormone that stimulates melanogenesis: Melanocyte Stimulating Hormone): NDP-MSH ([Nle^4, DPhe7]-α-MSH).
(§1) Melanocytes were seeded on a 96-well plate and cultured for 24 h (37° C., 5% CO2, DMEM 1 g/L glucose without phenol red supplemented with glucose 3 g/L, L-glutamine 2 mM, penicillin 50 U/mL, streptomycin 50 μg/mL, fetal calf serum (FCS) 10%). […] Each experimental condition was carried out with n=3, apart from the controls carried out with n=6. The cells were then incubated for 72 h. Wells without cells received in parallel the same quantities of medium, supplemented or not with NDP-MSH and with or without the test compounds or the reference in order to quantify the background noise associated with the presence of the compounds.
At the end of 72 hours of incubation, the total melanin (intra- and extracellular) was quantified by measuring the absorbance of each sample at 405 nm (direct reading of the culture plates) against a standard range of melanin (melanin concentrations tested from 0.78 to 100 μg/mL). The background noise, measured in the wells without cells, was subtracted from the values measured so that only the effect connected with the production of melanin is taken into account, without including any interference connected with the presence of the compounds. The results were expressed in percentage of melanin relative to the control as well as in percentage inhibition.

[3] = test system: B16 melanocytes; assay: Viability of the cells, test of reduction of MTT; assay type: cell-based; conditions: 72 h
Description: as §1
At the end of the treatment, the cells were incubated in the presence of MTT (3-(4,5-dimethylthiazol-2-yl)-2,5-diphenyl tetrazolium bromide), the conversion of which to blue crystals of formazan is proportional to the activity of succinate dehydrogenase (mitochondrial enzyme). After disruption of the cells, the formazan was dissolved in DMSO medium and the optical density (OD), representative of the number of live cells and of their metabolic reactivity, was measured with a microplate reader at 540 nm (VERSAmax, Molecular Devices).

[4] = target: T1, tyrosinase (DOPA oxidase) (Homo sapiens, UniProt P14679); assay: Screening of anti-tyrosinase activity: DOPA oxidase reaction on separated epidermis, count of DOPA positive melanocytes per mm2; assay type: cell-based
T1 construct: from tissue; host or cells: separated human epidermis from a frozen abdominoplasty (melanocytes in situ)
T1 sequence (P14679 19-529): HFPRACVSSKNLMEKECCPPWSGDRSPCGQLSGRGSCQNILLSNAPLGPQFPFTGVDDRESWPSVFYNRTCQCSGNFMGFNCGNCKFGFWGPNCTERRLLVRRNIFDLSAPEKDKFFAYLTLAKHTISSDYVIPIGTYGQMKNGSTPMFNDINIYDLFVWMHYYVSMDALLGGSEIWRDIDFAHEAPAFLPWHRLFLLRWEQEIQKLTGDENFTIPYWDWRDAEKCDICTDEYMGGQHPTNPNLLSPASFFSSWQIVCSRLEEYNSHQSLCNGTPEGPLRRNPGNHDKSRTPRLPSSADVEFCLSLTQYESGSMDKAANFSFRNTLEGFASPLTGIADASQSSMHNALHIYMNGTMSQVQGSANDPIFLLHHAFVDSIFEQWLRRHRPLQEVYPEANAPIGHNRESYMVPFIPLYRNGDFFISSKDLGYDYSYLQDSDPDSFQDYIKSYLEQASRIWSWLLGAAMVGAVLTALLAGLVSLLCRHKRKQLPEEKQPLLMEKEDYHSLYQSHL
Description: The products are tested in solution at 30 μg/mL in DMSO. Epidermis samples originating from a frozen abdominoplasty (person) were separated by incubation in 2N NaBr for 1.0 h at 37° C. They were then fixed in a buffered formolized fixing agent, rinsed and put in contact with the volume/volume mixture: solutions of L-DOPA/test formulation. After incubation, they were rinsed and mounted between slide and cover slip with mounting liquid of the Aquatex type. Observation was by optical microscopy with ×10 objective. Images were obtained with a tri CCD Sony DXC […] camera and stored using the Leica IM1000 data archiving software. For each batch, several microscope fields were analysed using the LEICA QWin image analysis software. For each field, the DOPA positive melanocytes were counted and the area of the zone was measured to determine the melanocyte count per mm^2.

[5] = test system: Normal human epidermal keratinocytes (NHEK); assay: Proliferation and/or migration of keratinocytes, artificial wound coverage; assay type: cell-based; conditions: percentage coverage at 48 h
Description: The phases of migration and proliferation of cells are major phases of healing that occur after the inflammation phase and are necessary for recolonization of the wound. An increase in the migration and proliferation of cells allows an improvement in healing. • Biological model: Normal human epidermal keratinocytes (NHEK) • Culture conditions: 37° C., 5% CO2 • Culture medium: Keratinocyte-SFM-PE-EGF (keratinocyte culture medium—serum free medium (SFM) without pituitary extract (PE) and without Epidermal Growth Factor (EGF) • Conditions: • Control (n=6) • Reference: EGF (Epidermal Growth Factor) at 10 ng/ml (n=2) • compounds tested (n=2) • Incubation: 72 hours • Assay: Normal human keratinocytes were seeded on 96-well plates suitable for the migration studies. In these plates, the substrates were pretreated with a solution of collagen and a mask was placed at the centre of each well, preventing adhesion of the cells in this zone and thus forming an artificial wound. After labelling the cells with calcein, the masks were removed and then the cells were treated with the compounds or the reference. The migration of the cells was monitored microscopically for 72 hours, taking photographs at 0 h, 24 h, 48 h and 72 h. The results are expressed in percentage coverage and compared with the untreated control.

[6] = test system: Human dermal fibroblasts aged according to the Hayflick model (P17NHDF); assay: Proliferation of aged human dermal fibroblasts, [3H]-thymidine incorporation; assay type: cell-based; conditions: 72 hours, 3 μM
Description: Thus, stimulation of the proliferation of the aged fibroblasts makes possible a partial reversal of the deleterious effects of ageing. • Biological model: Human dermal fibroblasts aged according to the Hayflick model (fibroblasts obtained by successive subculture) (P17NHDF) • Culture conditions: 37° C., 5% CO2 • Culture medium: DMEM/fetal calf serum (FCS) 10% • Conditions: • Control (n=6) • Control normal fibroblasts, not aged (P7 NHDF) (n=2) • Reference: EGF (Epidermal Growth Factor) at 10 ng/mL (n=2) • compounds tested (n=2) • Incubation: 72 hours • Assay: The effects on proliferation were evaluated by measuring the incorporation of [^3H]-thymidine in fibroblasts aged according to the Hayflick model. The Hayflick model consists of applying successive subcultures in order to induce an “aged” phenotype. The results are expressed in percentage stimulation of the incorporation of [^3H]-thymidine.

[7] = target: T2, human leukocyte elastase (Homo sapiens, UniProt P08246); assay: Inhibition of leukocyte elastase (EnzChek Elastase assay kit); assay type: biochemical; conditions: incubation 1 hour
T2 sequence (P08246 30-267): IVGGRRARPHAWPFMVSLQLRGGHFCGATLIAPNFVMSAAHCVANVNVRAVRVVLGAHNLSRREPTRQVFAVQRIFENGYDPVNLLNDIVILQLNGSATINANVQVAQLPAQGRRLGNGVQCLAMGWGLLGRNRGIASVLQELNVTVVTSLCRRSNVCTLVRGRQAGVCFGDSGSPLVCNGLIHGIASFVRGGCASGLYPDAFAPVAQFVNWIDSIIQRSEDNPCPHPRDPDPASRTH
Source text: The elastases are a sub-family of serine proteases responsible for the degradation of elastin. The numerous natural substrates of this enzyme include, in addition to elastin, the proteoglycans of cartilage, fibronectin and the type I, II, III and IV collagens. At the cutaneous level, inhibition of elastase can combat the effects of ageing, whether or not photo-induced, and limit the appearance of wrinkles and stretch marks. • Biological model: human leukocyte elastase • Conditions: • Control (n=6) • Reference: AAPV (N-methoxysuccinyl-Ala-Ala-Pro-Val-chloromethyl ketone) 100 μM (n=6) • compounds tested (n=2) • Incubation: 1 hour • Assay: The activity of human leukocyte elastase was evaluated using the EnzChek® Elastase assay kit. The measurement of activity is based on the use of a fluorescent substrate (DQTM Elastin) whose fluorescence is “quenched” through the presence of “quencher” groups at the level of the lytic sites. After action of the enzyme, the “quencher” groups are released and the fluorescence emitted is proportional to the activity of the enzyme. The results are expressed in percentage inhibition of the enzyme activity.

For O=C(/C=C/CCCCCOC1CCCCO1)N[C@H]1CCC[C@H]1NC(=O)/C=C/CCCCCOC1CCCCO1 (stereo partly shown) [c27], the “% control 24 h” value ([1]; 10 μM) was 131 % control, the inhibition at 30 µM ([2]; Melanocyte, 30 μM, read-out: Normalized data inhibition (%)) was 12% and the inhibition at 100 µM ([2]; Melanocyte, 100 μM, read-out: Normalized data inhibition (%)) was 110%. The “Viability (MTT) % stimulated control” value ([3]; 30 μM) was 89 % stimulated control and the “Viability (MTT) % stimulated control” value ([3]; 100 μM) was 71 % stimulated control.
With O=C(NC1CC1NC(=O)C(F)=CCCCCCCCCCCCCCCO)C(F)=CCCCCCCCCCCCCCCO (stereo not shown) [c42] the “% control 24 h” value ([1]; 3 μM) was 130 % control, the Variation/control ([4]; DOPA positive melanocyte count per mm2 vs DOPA control, product at 30 μg/mL in DMSO) was −55 and the “effectiveness for limiting tyrosinase activity compared with reference compounds” value ([4]; vs ref 1) was “more effective than the reference compounds”. The “% control 48 h” value ([5]; 3 μM) was 141 % control and the “Stimulation (%)” value [6] was 48%.
For CCCCCC=CCC=CCCCCCCCC(=O)NC1CCCC1NC(=O)CCCCCCCC=CCC=CCCCCC (stereo not shown) [c128], the “Normalized data inhibition (%)” value ([2]; 30 μM) was 9%, the “Normalized data inhibition (%)” value ([2]; 100 μM) was 93% and the “Inhibition (%)” value ([7]; 30 μM) was 75%.
For CCCCCCCCCCCCCC(=O)NC1CCC(NC(=O)CCCCCCCCCCCCC)C1 (stereo not shown) [c132], the “% control 24 h” value ([1]; 10 μM) was 131 % control and the “% control 48 h” value ([5]; 10 μM) was 138 % control.
In the case of “N-methoxysuccinyl-Ala-Ala-Pro-Val-chloromethyl ketone (MeOSuc-AAPV-CH2Cl) [reference compound]”, the “Inhibition (%)” value ([7]; 100 μM) is reported as 95%.
